The target in this test is benzodiazepine receptor (Rattus norvegicus, UniProt P18508+P62813). The experiment in a line: Competition radioligand binding assay with [3H]Ro 15-1788 in washed cerebellar membranes. Conditions: [3H]Ro 15-1788 binding; comparison with parent compound ocinaplon.

Regarding `O=C(c1ccccn1)c1cnn2c(-c3cc(Br)nc(Br)c3)ccnc12` [2,6-dibromo, 2-Pyridinyl[7-(2,6-dibromopyridin-4-yl)pyrazolo[1,5-a]pyrimidin-3-yl]methanone], the “affinity for the benzodiazepine receptor compared with ocinaplon” value was “substantially lower affinity”.

Source of the values: patent US20050277639A1, “2-Pyridinyl[7-(substituted-pyridin-4-yl)pyrazolo[1,5-a]pyrimidin-3-yl]methanones” (priority 2004, published 2005).
